Active and inactive are the calls of the source. The calls are words filed in the database; no cut-off is given here.

Common to all, as to assay type: functional, cell-based
The test system of assay [1] is A2780. Kind of assay: Cytotoxicity against human A2780 cells assessed as reduction in cell viability at 10 uM by MTT assay.
The subject of assay [2] is L5178Y. Kind of assay: Cytotoxicity against mouse L5178Y cells assessed as reduction in cell viability at 10 uM by MTT assay.
Assay [3] deals with A2780. Kind of assay: Cytotoxicity against human A2780 cells assessed as reduction in cell viability by MTT assay.
Assay [4] concerns L5178Y. Kind of assay: Cytotoxicity against mouse L5178Y cells assessed as reduction in cell viability by MTT assay.

As for `CC(C)C[C@H]1NC(=O)CNC(=O)CCNC(=O)[C@@H](Cc2c[nH]c3ccccc23)NC(=O)[C@H](C(C)C)NC(=O)[C@H](C(C)C)NC(=O)[C@H](C(C)C)NC1=O`, the result with A2780 [1] and in the assay on L5178Y [2] was inactive.
Regarding `CS[C@@]1(Cc2c[nH]c3ccccc23)NC(=O)[C@@](SC)(C(C)O)NC1=O` (stereo not given in full), the outcome in the assay with A2780 [1] and with L5178Y [2] was inactive.
For `CCC/C=C/CCC(=O)[C@]1(O)C(=O)N[C@@H](C)[C@@H]1O`, the outcome with A2780 [1] and in the assay on L5178Y [2] was inactive.
In the case of `CC[C@H](C)[C@H]1NC(=O)[C@@H](CC(C)C)NC(=O)CNC(=O)CCNC(=O)[C@@H](Cc2c[nH]c3ccccc23)NC(=O)[C@H](C(C)C)NC(=O)[C@@H]([C@@H](C)CC)NC1=O`, the outcome with A2780 [1] and with L5178Y [2] was inactive.
In the case of `O=C1OC(O)C=C1O` (stereo not given), the result in the assay on A2780 [1] and in the assay on L5178Y [2] was inactive.
For the compound `C/C=C/C=C\[C@@H](O)[C@H]1CCC(=O)O1`, the outcome in the assay on A2780 [1] and in the assay with L5178Y [2] was inactive.
As for `C[C@@H](O)[C@@]12SS[C@]3(C(=O)N1C)[C@@H](O)C1(C45c6ccccc6N[C@@H]4N4C(=O)[C@]6([C@@H](C)O)SS[C@]4(C(=O)N6C)[C@H]5O)c4ccccc4N[C@@H]1N3C2=O` (stereo not given in full), the IC50 amounted to 3.5 µM in the assay on A2780 [3] and 0.1 µM in the assay with L5178Y [4].
Regarding `CC[C@H](C)[C@H]1NC(=O)[C@@H](CC(C)C)NC(=O)CNC(=O)CCNC(=O)[C@@H](Cc2c[nH]c3ccccc23)NC(=O)[C@H](C(C)C)NC(=O)[C@H](C(C)C)NC1=O`, the IC50 in the assay on L5178Y [4] turned out to be 4.1 µM.

The values are drawn from ChEMBL document CHEMBL4385649, “Cyclic heptapeptides from the soil-derived fungus Clonostachys rosea” (Bioorg Med Chem, 2019).
